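A five-concentration, 48-hour dose response in 96-well plates underlies each endpoint, interpolated linearly between surrounding concentrations. The concentration for 50% growth inhibition is given as GI50. Definition used: TGI = concentration required for complete inhibition of growth.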
How the values were obtained:
Assay in all cases: inhibition of tumour cell growth, NCI panel, 48 h
A549 NSCLC = test system: A549 NSCLC
BT-549 breast = test system: BT-549 breast
CAKI-1 renal = test system: CAKI-1 renal
COLO 205 colon = test system: COLO 205 colon
HS 578T breast = test system: HS 578T breast
KM12 colon = test system: KM12 colon
NCI-H522 lung = test system: NCI-H522 lung
OVCAR-4 ovarian = test system: OVCAR-4 ovarian
SK-MEL-2 melanoma = test system: SK-MEL-2 melanoma
SNB-75 CNS = test system: SNB-75 CNS

SMILES	GI50 (A549 NSCLC) [µM]	TGI (A549 NSCLC) [µM]	GI50 (BT-549 breast) [µM]	TGI (BT-549 breast) [µM]	GI50 (CAKI-1 renal) [µM]	TGI (CAKI-1 renal) [µM]	GI50 (COLO 205 colon) [µM]	TGI (COLO 205 colon) [µM]	GI50 (HS 578T breast) [µM]	TGI (HS 578T breast) [µM]	GI50 (KM12 colon) [µM]	TGI (KM12 colon) [µM]	GI50 (NCI-H522 lung) [µM]	TGI (NCI-H522 lung) [µM]	GI50 (OVCAR-4 ovarian) [µM]	TGI (OVCAR-4 ovarian) [µM]	GI50 (SK-MEL-2 melanoma) [µM]	TGI (SK-MEL-2 melanoma) [µM]	GI50 (SNB-75 CNS) [µM]	TGI (SNB-75 CNS) [µM]
O=C([O][Sn]([O]C(=O)c1ccccn1)([c]1ccccc1)[c]1ccccc1)c1ccccn1	17.6	31.5	8.25	20.7	1.61	3.98	6.28	19.4	2.32	8.88	13.2	25.9	0.14	0.291	7.53	20.3	2.57	6.26	2.54	13
O=c1/c(=C\c2ccc(F)cc2)sc2n1C(c1ccc(F)cc1)C1=C(N=2)c2ccc3ccccc3c2OCC1 (configuration not stated)	> 100	> 100	> 64.5	> 100	–	> 66.9	> 100	> 100	> 100	> 100	> 89.8	> 100	> 100	> 100	> 100	> 100	> 100	> 100	> 100	> 100
COc1ccc(-c2nc(-c3nc4ccc(F)cc4[nH]3)c3ccccn23)cc1	3.96	28.4	4.84	22.9	12.1	> 100	78.1	> 100	8.54	> 100	7.03	> 100	4.49	25	6.92	> 100	10.1	54.8	3.4	12.4
Cc1c2c(c(C)c3c4c(oc13)CCCC4)C=NCC2	–	32.4	–	33.7	–	28	–	48.5	–	53	–	33	–	31.3	–	54.8	–	31.2	–	32.4
COc1ccc(C(O)c2cc3c(N)c(C(=O)Nc4cccc(Cl)c4)sc3nc2C)cc1 (configuration not stated)	1.45	> 39.7	2.09	> 38.5	1.27	> 39.4	2.79	25.2	0.825	–	1.1	> 33.4	1.05	> 41.9	2.59	> 51.7	1.29	42.7	0.22	16.6
Cc1nc2ccc(NC(=O)CCNC(=O)CCCc3ccc(CC(C(=O)O)C(=O)O)cc3)cc2s1	> 100	> 100	> 100	> 100	> 100	> 100	> 100	> 100	> 100	> 100	> 100	> 100	> 100	> 100	> 100	> 100	> 100	> 100	> 100	> 100
C1CC[N-]CC1.CC(=N\O)/C(C)=N/O.CC(=N\O)/C(C)=N/O.OC1[CH-]CCCC1.[Co+2]	58.5	> 100	37.8	> 100	34.7	> 100	19	34.5	22.8	63	> 100	> 100	15.7	31	72.7	> 100	23.9	59.7	26.9	> 100
Cc1nc(Nc2ccccn2)sc1C(=O)/C=C/c1ccc(Cl)cc1	0.426	> 100	0.344	8.64	0.46	13.4	0.322	1.35	0.398	> 100	0.377	15.9	0.241	–	0.778	> 100	1.36	> 100	0.296	24.7
Cc1ccc(S(=O)(=O)c2nc(-c3ccccc3)oc2S(C)=O)cc1 (configuration not stated)	5.23	18.5	1.71	3.37	1.5	2.84	1.72	3.56	5.27	40	1.95	3.86	1.12	2.59	1.91	3.65	1.73	3.73	2.69	9.55
C=C1CCC2(C#N)[C@H]3[C@H](CC[C@@H]2C)[C@@H](C)C[C@@H](CC(C)(C)NC(=O)CN2CCC2=O)[C@H]13 (some centres not stated)	13.3	50.4	2.96	17.3	10.1	28.8	2.56	13	4.79	30.7	3.36	15	13.5	45.6	8.9	> 100	15.8	35.6	1.57	10.2
COc1cc2c(cc1O)CC1c3c(cc(O)c(OC)c3-2)CCN1C (configuration not stated)	–	> 100	–	> 100	–	> 100	–	> 100	–	> 100	–	> 100	–	> 100	–	> 100	–	> 100	–	> 100
COc1cc(C)c(C2NC(=O)c3ccccc3N2)cc1C (configuration not stated)	–	> 100	–	71.4	–	16.2	–	4.64	–	0.908	–	> 100	–	0.713	–	> 82.9	–	0.924	–	0.496
O=C1CCC(N2C(=O)c3ccccc3C2=O)C(=O)N1 (configuration not stated)	–	> 100	–	> 100	–	> 100	–	> 100	–	> 100	–	> 100	–	> 100	–	> 100	–	> 100	–	> 100
Cc1c2cc(Cl)c3ccccc3c2c[n+]2ccccc12	8.54	> 100	1.21	5.4	21.8	> 100	1.83	10.2	1.12	11.9	1.95	9.31	2.13	12.4	2.71	17.5	3.58	11.5	2.31	12.9
c1ccc(-c2nc(N3CCOCC3)c3c4c(sc3n2)CCCCCC4)nc1	3.57	15.9	4.38	16.7	2.29	16.1	9.4	22.3	3.37	42.3	4.28	16.1	5.85	20.2	4.85	80.3	7.9	21.7	7.1	20.8
COc1cc(NC(=O)CCSc2nc3ccc(C)cc3c(=O)n2Cc2ccccc2)cc(OC)c1OC	8.08	> 100	5.02	> 100	> 100	> 100	> 100	> 100	2.18	6.74	> 100	> 100	11.3	76.7	3.95	> 100	4.4	27.5	1.9	4.78
